Experimental data taken from patent US11297839B2, “Stable compositions of uncomplexed iodine and methods of use” (ioTech International, Inc., priority 2014, dated 2022).

Assay: Compatibility of surface active agents with molecular iodine base composition
Type: physicochemical
Settings: 985 micromolar molecular iodine base with n-propanol, peracetic acid, hydrogen peroxide, iodate, citric acid; 37 degrees centigrade 6 weeks
Protocol: A further objective of this invention was to incorporate surface active agents in the compositions contemplated in this application to enhance the cleaning and wetting properties of said compositions. A series of surface active agents were screened to insure their compatibility with the molecular iodine based composition contemplated in this application. A 985 micromolar concentration of molecular iodine was prepared by dissolving elemental iodine crystals in a sealed glass volumetric flask containing the base composition. […] Samples of the following surface active agents or classes of surface active agents were obtained from various manufacturers and evaluated for compatibility with molecular iodine.

Row | Compound | compatibility of surface active agent with molecular iodine composition
1 | CCCCCCCCCCCC(=O)OCC(O)CO (stereo not shown) [dodecanoic acid 2,3-dihydroxypropyl ester] | compatible at all concentrations tested
2 | nonylphenoxypolyethyleneoxy ethanol sulfate | compatible at all concentrations tested
3 | CCCCCCCCC(=O)OCC(O)CO (stereo not shown) [nonanoic acid 2,3-dihydroxypropyl ester] | compatible at all concentrations tested
4 | CCCCCCCC(=O)O [capryllic acid] | compatible at all concentrations tested

Assay: Compatibility of biocides with 300 ppm molecular iodine base composition
Settings: biocide added at increasing concentrations to 300 ppm molecular iodine base, iodate excess 2; 6 weeks

Row | Compound | compatibility with molecular iodine (colour, thiosulfate titratable iodine)
5 | CC(=O)OO [peracetic acid] | did not reduce thiosulfate titratable iodine
6 | CCO [ethanol] | did not reduce thiosulfate titratable iodine
7 | OO [hydrogen peroxide] | did not reduce thiosulfate titratable iodine
8 | CCCO [Formulation 1-propanol, 1-propanol] | did not reduce thiosulfate titratable iodine
9 | CC(C)O [Formulation 2-propanol, 2-propanol] | did not reduce thiosulfate titratable iodine
10 | CCCCCCCC(=O)O [octanoic acid] | did not reduce thiosulfate titratable iodine
